Reference: PubChem BioAssay (NCI)
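A five-concentration, 48-hour dose response in 96-well plates underlies each endpoint, interpolated linearly between surrounding concentrations. At the GI50, growth is halved. TGI denotes the concentration required for complete inhibition of growth.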

Assays:
Experiment in all cases: NCI tumour cell line growth inhibition, 48 h
[1] = system: DMS 114 small cell lung
[2] = system: KM20L2 colon
[3] = system: DLD-1 colon
[4] = system: HS 578T breast
[5] = system: BT-549 breast
[6] = system: MDA-MB-435
[7] = system: T-47D breast
[8] = system: MDA-N
[9] = system: RXF-631 renal
[10] = system: SN12K1 renal
[11] = system: P388 leukemia

Row | Structure (SMILES) | TGI [1] [µM] | TGI [2] [µM] | TGI [3] [µM] | TGI [9] [µM] | other results
1 | C/C(=N\NS(=O)(=O)c1ccccc1)c1ccc(Cl)c(Cl)c1 | > 100 | > 100 | > 100 |  | 
2 | CN(C)CCCNC(CC#N)CCC#N (centres undefined) |  |  |  |  | TGI [4]: > 10 µM; TGI [5]: > 10 µM; TGI [6]: > 10 µM; TGI [7]: > 10 µM; TGI [8]: > 10 µM
3 | O=C(COc1ccc2c(=O)cc(-c3ccccc3)oc2c1)N1CCN(c2ccccc2)CC1 | > 100 | > 100 |  |  | 
4 | CN(C)C(=O)OC(Cn1cncn1)c1ccc(Cl)cc1Cl (centres undefined) | > 100 | > 100 | > 100 |  | 
5 | Cc1ccc(C(=O)c2nnc(C(=O)c3ccc(C)cc3)nn2)cc1 |  | > 100 | > 100 |  | 
6 | Cc1csc(=S)n1OC(=O)NC1CCCCC1 | 44.7 |  | > 100 |  | 
7 | Cc1cc(N(CCC#N)CCC#N)ccc1N=Nc1cccc(C(=O)O)c1 | > 100 |  | > 100 | > 100 | 
8 | COc1ccc(C2=Nc3ccccc3NC(=O)C2)cc1 | 59.7 | > 100 | > 100 | > 100 | 
9 | Nn1c(NNC(=O)C(=O)Nc2cc(Cl)c(Cl)cc2Cl)n[nH]c1=S | > 100 | > 100 | > 100 |  | 
10 | NC1C[C@H](n2cc(/C=C/Br)c(=O)[nH]c2=O)C[C@@H]1CO (some centres undefined) | > 100 | > 100 | > 100 |  | 
11 | Cc1ccc(N=Cc2ccc3c(c2)OCO3)cc1C |  | > 100 | > 100 | > 100 | 
12 | COc1cc(OC(C)=O)cc2c(OC(C)=O)ccc(OC(C)=O)c12 |  | > 100 |  |  | 
13 | O=C(N/C(=C\c1ccc2c(c1)OCO2)c1nc2ccccc2[nH]1)c1ccccc1 | 6.08 | > 89.7 | > 100 |  | 
14 | COC(=O)C(=O)C1(CCC(C)=O)c2ccccc2-c2c(C)ccc(C)c21 (centres undefined) | > 100 | > 100 | > 100 |  | 
15 | COc1cc(C(=O)C/C(CCCC(=O)Nc2ccccc2[N+](=O)[O-])=N/NC(=O)c2cc3ccccc3cc2O)ccc1O |  | > 91.1 | > 95 | > 100 | 
16 | COC(C(=O)[O][Ge]([CH3])([CH3])[CH3])c1ccccc1 (centres undefined) | > 100 | > 100 | > 100 | > 100 | GI50 [1]: > 100 µM; GI50 [2]: > 100 µM; GI50 [9]: > 100 µM; GI50 [3]: > 100 µM
17 | CCCC(=O)OC1C(C(O)CO)OC2OC(C)(C)OC21 (centres undefined) | > 100 | > 100 | > 100 |  | TGI [4]: > 100 µM; TGI [5]: > 100 µM; TGI [6]: > 100 µM; TGI [7]: > 100 µM; TGI [8]: > 100 µM
18 | C=CCC[CH2][Sn]([c]1ccccc1)([c]1ccccc1)[c]1ccccc1 |  | 3.36 | 2.98 | 3.53 | GI50 [2]: 1.83 µM; GI50 [9]: 1.85 µM; GI50 [3]: 1.51 µM
19 | O=C1[C@H]2ON(c3ccccc3)C(c3ccccc3Cl)[C@H]2C(=O)N1c1ccc(Cc2ccc(N3C(=O)[C@@H]4ON(c5ccccc5)C(c5ccccc5Cl)[C@@H]4C3=O)cc2)cc1 (some centres undefined) | > 100 | > 100 | > 100 |  | 
20 | CC(=O)OCC1OC(OC2C(CSC3OC(COC(C)=O)C(OC(C)=O)C(OC(C)=O)C3OC(C)=O)OC(OC(C)=O)C(OC(C)=O)C2OC(C)=O)C(OC(C)=O)C(OC(C)=O)C1OC(C)=O (centres undefined) | > 100 | > 100 | > 100 |  | 
21 | CC1SC2=NC3=C(c4ccccc4C3=O)C(c3ccc(F)cc3)N2C1=O (centres undefined) | > 100 | > 100 | > 100 |  | 

Row | Structure (SMILES) | TGI [1] [µM] | TGI [2] [µM] | TGI [3] [µM] | TGI [9] [µM] | other results
22 | N#C/C(=C\c1ccc(O)c(O)c1)C(N)=S | > 100 | > 100 | > 100 |  | 
23 | CCOc1ccc(NC(=O)C(=O)CC(=O)C2=C(C)Nc3ccccc3S2)cc1 | > 50 | > 50 | > 50 | > 50 | 
24 | CC1OC(O[C@@H]2OC=C(C=O)[C@@]3(O)CC[C@H](C)[C@@H]23)C(O)C(O)C1O (some centres undefined) |  |  |  |  | TGI [4]: > 100 µM; TGI [5]: > 100 µM; TGI [6]: > 100 µM; TGI [7]: > 100 µM; TGI [8]: > 100 µM
25 | CC1(C)C(=NNC(=O)C[N+](C)(C)C)C(C)(C)C1=NNC(=O)C[N+](C)(C)C | > 100 | > 100 | > 100 | > 100 | 
26 | O=[N+]([O-])C1C2C=CC(C2)[C@H]1c1ccco1 (some centres undefined) | > 100 | > 100 | > 100 |  | 
27 | CCc1ccccc1NC(=O)C(=O)CC(=O)c1sc(Nc2ccccc2)nc1C | > 100 | > 100 | > 100 | > 100 | 
28 | COc1ccc(OC)c(NC(=O)C2=C(C)NC(C)=C(C(=O)Nc3cc(OC)ccc3OC)C2c2ccccc2)c1 | > 100 | > 100 | > 100 |  | 
29 | CSc1ccc(C2OC(=O)c3ccccc32)c2ccccc12 (centres undefined) | > 100 | > 100 | > 100 | > 100 | 
30 | CC1C=C(OC(=O)c2ccccc2)C(=O)C(n2cc(F)c(=O)[nH]c2=O)O1 (centres undefined) | > 100 | > 100 | > 100 |  | 
31 | CC(C)[C@H]1CO[C@]2(C)[C@@H]3CN(Cc4ccccc4)C[C@@H]3C(=O)N12 | > 100 | > 100 | > 100 |  | 
32 | C1C[OH+]CC[OH+]CCNCC[OH+]CC[OH+]CCN1.N.[Cl-].[Pt+4] |  | > 100 | > 100 |  | GI50 [2]: 30.3 µM; GI50 [3]: 20.2 µM
33 | COc1cc(OC)c2c(c1)C(=O)C(CC(C)O)=CC2=O (centres undefined) | 9.21 | 31.8 | 28.5 |  | 
34 | CCCCCCCCCCCC(=O)OCC1OC(n2cc(F)c(=O)[nH]c2=O)C(NC(=O)OCc2ccccc2)C(OC(=O)CCCCCCCCCCC)C1O (centres undefined) | > 100 | > 100 | > 100 | > 100 | 
35 | COc1ccc2nc(-c3cccs3)cc(C(O)CN3CCSCC3)c2c1 (centres undefined) | 38.7 | 45.5 | > 100 |  | 
36 | C=CC/C=C/Cc1csc(C(C)(C)C(O)C/C=C/C(=C)CCNC(=O)OC)n1 (centres undefined) | 2.91 | > 100 | > 100 |  | TGI [4]: > 100 µM; TGI [5]: > 100 µM; TGI [6]: > 100 µM; TGI [7]: > 100 µM; TGI [8]: > 100 µM
37 | CCOC(=O)COc1ccccc1/C=C1\CCC(CN(C)C)C1=O (centres undefined) | 24.2 | 30.2 | 12.2 | 34.4 | TGI [10]: 3.47 µM; TGI [11]: 1.54 µM
38 | CCOC(=O)c1c2c(n3ccccc13)C(=O)c1ccccc1C2=O |  |  |  |  | TGI [4]: > 100 µM; TGI [5]: > 100 µM; TGI [6]: > 100 µM; TGI [7]: > 100 µM; TGI [8]: > 100 µM
39 | CC1=C(C)C(=O)c2c(cc3ccccn23)C1=O | 26.9 |  |  | 21.7 | 
40 | CC1=Nc2ccccc2S/C1=C(/C)NNC(=O)C(N)=O | > 100 | > 100 | > 100 |  | 
41 | Cc1ccc(NC(=O)C(=O)C(C#N)c2ccccc2C)cc1C (centres undefined) | > 59.2 | > 100 | > 100 |  | 
42 | C#CCOCn1cnc2c(Cl)ncnc21 | > 100 |  | > 100 | > 100 | 
